From PubChem BioAssay AID1919001 (Molecular Pharmacology Branch, DTP, NCI, 2023)

Tested on: 699152-130-R-J1-PDC complex spheroid growth
Assay: Anticancer human tumor 699152-130-R-J1-PDC patient-derived pancreatic carcinoma cell line growth inhibition [AhR]
Settings: for IC50: curve of first compound; for viability, T/C: stronger effect = lower value
In short: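 Complex tumor spheroids co-cultured with HUVEC and human MSC stroma; AhR antagonists tested in combination with standard-of-care and investigational agents. Top concentration at or near clinical Cmax (else 10 microM), half-log dilutions; growth expressed as percent test/control.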

[1] = second compound 0.1 µM, first compound 0.0316 µM
[2] = second compound 0.1 µM, first compound 0.1 µM
[3] = second compound 0.1 µM, first compound 0.316 µM
[4] = second compound 0.1 µM, first compound 1 µM
[5] = second compound 0.1 µM, first compound 3.16 µM
[6] = second compound 0.1 µM, first compound 10 µM
[7] = second compound 0.316 µM, first compound 0.0316 µM
[8] = second compound 0.316 µM, first compound 0.1 µM
[9] = second compound 0.316 µM, first compound 0.316 µM
[10] = second compound 0.316 µM, first compound 1 µM
[11] = second compound 0.316 µM, first compound 3.16 µM
[12] = second compound 0.316 µM, first compound 10 µM
[13] = second compound 1 µM, first compound 0.0316 µM
[14] = second compound 1 µM, first compound 0.1 µM
[15] = second compound 1 µM, first compound 0.316 µM
[16] = second compound 1 µM, first compound 1 µM
[17] = second compound 1 µM, first compound 3.16 µM
[18] = second compound 1 µM, first compound 10 µM
[19] = second compound 3.16 µM, first compound 0.0316 µM
[20] = second compound 3.16 µM, first compound 0.1 µM
[21] = second compound 3.16 µM, first compound 0.316 µM
[22] = second compound 3.16 µM, first compound 1 µM
[23] = second compound 3.16 µM, first compound 3.16 µM
[24] = second compound 3.16 µM, first compound 10 µM
[25] = second compound 10 µM, first compound 0.0316 µM
[26] = second compound 10 µM, first compound 0.1 µM
[27] = second compound 10 µM, first compound 0.316 µM
[28] = second compound 10 µM, first compound 1 µM
[29] = second compound 10 µM, first compound 3.16 µM
[30] = second compound 10 µM, first compound 10 µM
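Also: compound exposure lasted 7 days after spheroids had grown for 3 days.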

Compound | IC50 (second compound 0.1 µM) | IC50 (second compound 0.316 µM) | IC50 (second compound 1 µM) | IC50 (second compound 3.16 µM) | IC50 (second compound 10 µM) | viability, T/C [1] | viability, T/C [2] | viability, T/C [3] | viability, T/C [4] | viability, T/C [5] | viability, T/C [6] | viability, T/C [7] | viability, T/C [8] | viability, T/C [9] | viability, T/C [13] | viability, T/C [14] | viability, T/C [19] | viability, T/C [20] | viability, T/C [25] | viability, T/C [26] | also measured
CC(C)c1c(-c2ccccc2)nc2c(C#N)c[nH]n2c1=O + Cc1ccccc1N=Nc1ccc(NC(=O)c2ccnn2C)c(C)c1 | > 10000 nM | > 10000 nM | > 10000 nM | > 10000 nM | > 10000 nM | 104% | 81.7% | 89.5% | 86.4% | 79.6% | 92.1% | 94.6% | 86.2% | 82.6% | 83.3% | 93% | 96% | 102% | 99.7% | 96.6% | viability, T/C [10]: 82.5%; viability, T/C [11]: 84.6%; viability, T/C [12]: 84.6%; viability, T/C [15]: 87.7%; viability, T/C [16]: 99.1%; viability, T/C [17]: 86.7%; viability, T/C [18]: 90.8%; viability, T/C [21]: 103%; viability, T/C [22]: 82.5%; viability, T/C [23]: 98.8%; viability, T/C [24]: 93.5%; viability, T/C [27]: 103%; viability, T/C [28]: 102%; viability, T/C [29]: 106%; viability, T/C [30]: 103%
COc1cccc2c1C(=O)c1c(O)c3c(c(O)c1C2=O)CC(O)(C(=O)CO)CC3OC1CC(N)C(O)C(C)O1 (stereo not given) + CC(CO)NC(=O)c1cc(-c2ccc(Cl)cc2)nn(-c2cnn(C)c2)c1=O | 453 nM | 378 nM | 462 nM | 370 nM | 325 nM | 71.2% | 86.7% | 56.8% | 29.1% | 1.94% | 11.6% | 83.2% | 74.2% | 56% | 70.4% | 72.7% | 68.1% | 69.9% | 73.4% | 69.3% | viability, T/C [10]: 21.6%; viability, T/C [11]: 2.1%; viability, T/C [12]: 11.6%; viability, T/C [15]: 64.1%; viability, T/C [16]: 20.7%; viability, T/C [17]: 2.66%; viability, T/C [18]: 12.9%; viability, T/C [21]: 56.2%; viability, T/C [22]: 9.03%; viability, T/C [23]: 8.71%; viability, T/C [24]: 15.1%; viability, T/C [27]: 51.1%; viability, T/C [28]: 2.91%; viability, T/C [29]: 5.62%; viability, T/C [30]: 12.8%
CC1(C)CCC(CN2CCN(c3ccc(C(=O)NS(=O)(=O)c4ccc(NCC5CCOCC5)c([N+](=O)[O-])c4)c(Oc4cnc5[nH]ccc5c4)c3)CC2)=C(c2ccc(Cl)cc2)C1 + CC(CO)NC(=O)c1cc(-c2ccc(Cl)cc2)nn(-c2cnn(C)c2)c1=O | > 10000 nM | > 10000 nM | > 10000 nM | > 10000 nM | > 10000 nM | 102% | 119% | 95.8% | 111% | 89.1% | 60.5% | 104% | 109% | 96.5% | 96.2% | 108% | 98% | 100% | 90.8% | 91.3% | viability, T/C [10]: 92.2%; viability, T/C [11]: 87.1%; viability, T/C [12]: 63.1%; viability, T/C [15]: 105%; viability, T/C [16]: 102%; viability, T/C [17]: 95.4%; viability, T/C [18]: 66%; viability, T/C [21]: 102%; viability, T/C [22]: 83%; viability, T/C [23]: 96.9%; viability, T/C [24]: 65%; viability, T/C [27]: 97.5%; viability, T/C [28]: 84.2%; viability, T/C [29]: 84.4%; viability, T/C [30]: 73.7%
Cn1ncnc1C1c2n[nH]c(=O)c3cc(F)cc(c23)NC1c1ccc(F)cc1 (stereo not given) + Cc1ccccc1N=Nc1ccc(NC(=O)c2ccnn2C)c(C)c1 | > 100 nM | > 100 nM | > 100 nM | > 100 nM | > 100 nM | 99.2% | 100% |  |  |  |  | 92.4% | 80.1% |  | 95.5% | 83.2% | 90.5% | 99% | 108% | 105% | viability, T/C (second compound 0.1 µM, first compound 0.000316 µM): 83.7%; viability, T/C (second compound 0.1 µM, first compound 0.001 µM): 101%; viability, T/C (second compound 0.1 µM, first compound 0.00316 µM): 101%; viability, T/C (second compound 0.1 µM, first compound 0.01 µM): 87%; viability, T/C (second compound 0.316 µM, first compound 0.000316 µM): 102%; viability, T/C (second compound 0.316 µM, first compound 0.001 µM): 96.5%; viability, T/C (second compound 0.316 µM, first compound 0.00316 µM): 97.8%; viability, T/C (second compound 0.316 µM, first compound 0.01 µM): 88.8%; viability, T/C (second compound 1 µM, first compound 0.000316 µM): 107%; viability, T/C (second compound 1 µM, first compound 0.001 µM): 87%; viability, T/C (second compound 1 µM, first compound 0.00316 µM): 94%; viability, T/C (second compound 1 µM, first compound 0.01 µM): 98.4%; viability, T/C (second compound 3.16 µM, first compound 0.000316 µM): 97.5%; viability, T/C (second compound 3.16 µM, first compound 0.001 µM): 117%; viability, T/C (second compound 3.16 µM, first compound 0.00316 µM): 112%; viability, T/C (second compound 3.16 µM, first compound 0.01 µM): 100%; viability, T/C (second compound 10 µM, first compound 0.000316 µM): 113%; viability, T/C (second compound 10 µM, first compound 0.001 µM): 112%; viability, T/C (second compound 10 µM, first compound 0.00316 µM): 118%; viability, T/C (second compound 10 µM, first compound 0.01 µM): 122%
